Data as given in patent publication US8007782B2, “Combination bacteriolytic therapy for the treatment of tumors” (priority 2003, dated 2011).

Tests used:
[1] = Mortality following COBALT; assay type: in vivo, nude mice; details: deaths within one week, pooled xenograft models
From the text: (§1) All animal protocols were designed in accordance with the Guide for the Care and Use of Laboratory Animals (NIH Publication 86-23) and were approved by the Johns Hopkins University Institutional Animal Care and Use Committee. Six to eight week old mice were implanted subcutaneously on one flank with 3 to 6 million cancer cells. Establishment of tumors of 150 to 500 mm3 took 8 to 21 days, depending on the cell type. C. novyi-NT spores (300×106) and anti-microtubule agents were generally administered by a single intravenous injection through the tail vein in a total volume of 300 to 500 ul phosphate-buffered saline (PBS). Quantitative assessment of tumor growth was performed by measuring subcutaneous tumor grafts (major and minor axis) using electronic calipers. Tumor volume was calculated using the equation: length×width2×0.5. Progression free survival was defined as the length of time following treatment before any increase in tumor volume was observed. Mice were considered “cured” if no tumor was evident three months after treatment. Animals were weighed at least twice a week and carefully observed for signs of toxicity every day for the first week following treatment and then twice a week thereafter. At least five mice were used for each treatment arm described in the Experimental Results.
This toxicity was observed only when the combination of C. novyi-NT spores and the drugs was administered and not with either the bacteria or the drugs alone. […] Though major tumor regressions were common, few mice died as a result of therapy (Table 2) No deaths occurred after treatment with the microtubule stabilizers plus C. novyi-NT, while 4% to 8% of mice treated with microtubule destabilizers plus C. novyi-NT died. The only other toxicity observed was transient weight loss (Table 3). Mice treated with the drugs alone lost ˜5 to 10% of their body weight within 7 days, while weight loss after treatment with C. novyi-NT plus these drugs varied from 8% to 18%. All weights recovered to pre-treatment levels within two weeks.

[2] = test system: HCT116, HuCC-T1, HT-29, SW480, B16 and DLD-1 tumors; experiment: Low dose HTI-286 and L-NNA on various xenografts (FIG. 10); assay type: in vivo, mice; details: HTI-286 1 mg/kg without L-NNA; L-NNA 10 mg/kg without HTI-286
From the text: FIG. 10A-10F Quantification of the effects of C. novyi-NT plus low doses of HTI-286 and L-NNA on various xenografts (HCT116, HuCC-T1, HT-29, SW480, B16, and DLD-1, respectively).
[…] […] The p-values are based on comparisons between L-NNA+HTI-286 and L-NNA+HTI-286+C. novyi-NT spores. The p-value is indicated only when the result was statistically significant.
All animal protocols were designed in accordance with the Guide for the Care and Use of Laboratory Animals (NIH Publication 86-23) and were approved by the Johns Hopkins University Institutional Animal Care and Use Committee. Six to eight week old mice were implanted subcutaneously on one flank with 3 to 6 million cancer cells. Establishment of tumors of 150 to 500 mm3 took 8 to 21 days, depending on the cell type. C. novyi-NT spores (300×106) and anti-microtubule agents were generally administered by a single intravenous injection through the tail vein in a total volume of 300 to 500 ul phosphate-buffered saline (PBS). Quantitative assessment of tumor growth was performed by measuring subcutaneous tumor grafts (major and minor axis) using electronic calipers. Tumor volume was calculated using the equation: length×width2×0.5. Progression free survival was defined as the length of time following treatment before any increase in tumor volume was observed. Mice were considered “cured” if no tumor was evident three months after treatment. […]

C. novyi-NT = experiment: Quantification of C. novyi-NT in tumors by real-time PCR; assay type: in vivo, C. novyi-NT in mice bearing HCT116 xenografts; details: versus spores without drug; HCT116 xenografts; SD printed +/−0.08 (HTI-286), +/−0.3 (docetaxel)
Protocol: Mice bearing HCT116 xenografts were treated with C. novyi-NT spores with or without HTI-286 (1.7 mg/kg) as described above. Following euthanasia 24-48 hr later, tumors were harvested, weighed, minced, and Dounce-homogenized. Genomic DNA was isolated using the Qiagen Genomic DNA Buffer Set and Genomic-tip 100/G. 25 ng of DNA was used in a PCR using the conditions described in (Vogelstein and Kinzler, 1999) The following primers specific for the C. novyi-NT phospholipase C gene were used: 5′-[…] (SEQ ID NO:1) and 5′-[…] (SEQ ID NO:2). No detectable primer dimers formed and no nonspecific amplification of mouse or xenograft genomic DNA occurred with these primers and PCR conditions. Real-time PCR was performed using an iCycler, and threshold cycle numbers were calculated using the iCycler Optical system interface software (Bio-Rad Lab, Hercules, Calif.). Averages of the threshold cycle number (Ct) of triplicate measurements per tumor were obtained, and three different tumors were studied for each treatment group. The results were expressed as the difference between the Ct of the treated tumor and the Ct of untreated controls, normalized to tumor weight.
Second, we directly tested the size of bacterial populations within tumors by measuring the number of bacteria at various times following intravenous injection of C. novyi-NT spores into mice bearing HCT116 xenografts. […]

[3] = test system: HCT116 human colorectal cancer cells; experiment: Tumorigenicity assay, HCT116 xenografts in nude mice; assay type: in vivo; details: for Effect with C. novyi-NT / Effect alone: nude mice; for Effect alone: agent alone
From the text: as §1
The timing, route, and dose of agents are critical for the success of any experimental therapy. When two agents are combined, the number of variables that must be tested increases exponentially. To simplify interpretation of the comparisons between various anti-microtubule agents, pilot studies with representative drugs were performed.
Eighteen agents known to interact with microtubules were each tested in this manner in nude mice harboring xenografts of HCT116 human colorectal cancer cells. At least five mice harboring tumors of 150 to 500 mm3 in size were used for each experimental arm. Two classes of responses were noted. One type of response was characterized by a rapid hemorrhagic necrosis, observed only with agents that inhibited microtubule […] (FIG. 1A, B). The other type of response was characterized by a slow regression, observed with agents that stabilized microtubules (FIG. 2A, B).

## CN[C@H](C(=O)N[C@H](C(=O)N(C)[C@H](/C=C(\C)C(=O)O)C(C)C)C(C)(C)C)C(C)(C)c1ccccc1 [HTI-286, N,β,β-trimethyl-L-phenylalanyl-N^1-[(1S,2E)-3-carboxy-1-isopropylbut-2-enyl]-N^1,3-dimethyl-L-valinamide]
[1]; drug dose 1.7 mg/kg
  # dead (treatment-related deaths): 3
  dead (%): 2.9%
[1]; drug dose 1.9 mg/kg
  # dead (treatment-related deaths): 3
  dead (%): 5.4%
[1]; drug dose 2.0 mg/kg
  # dead (treatment-related deaths): 5
  dead (%): 10.6%
[2]
  effects on tumor growth when administered without the other agent: no significant effects on tumor growth
C. novyi-NT
  increase in number of C. novyi-NT bacteria in tumor when co-injected with drug: 6.8 fold
[3]; 0.5 mg/kg × 1 (iv) with 3×108 C. novyi-NT spores iv
  Effect with C. novyi-NT: +
[3]; 1.0 mg/kg × 1 (iv) with 3×108 C. novyi-NT spores iv
  Effect with C. novyi-NT: +
[3]; 1.5 mg/kg × 1 (iv) with 3×108 C. novyi-NT spores iv
  Effect with C. novyi-NT: ++ (10% to 50% shrinkage in tumor volume relative to pre-treatment size)
[3]; 1.7 mg/kg × 1 (iv) with 3×108 C. novyi-NT spores iv
  Effect with C. novyi-NT: ++++ (>20% cures)
[3]; 1.9 mg/kg × 1 (iv) with 3×108 C. novyi-NT spores iv
  Effect with C. novyi-NT: ++++ (>20% cures)
[3]; 2 (2.0) mg/kg × 1 (iv) with 3×108 C. novyi-NT spores iv
  Effect with C. novyi-NT: ++++ (>20% cures)
[3]; 0.5 mg/kg × 1 (iv)
  Effect alone: 0
[3]; 1.0 mg/kg × 1 (iv)
  Effect alone: 0
[3]; 1.5 mg/kg × 1 (iv)
  Effect alone: +
[3]; 1.7 mg/kg × 1 (iv)
  Effect alone: +
[3]; 1.9 mg/kg × 1 (iv)
  Effect alone: ++ (10% to 50% shrinkage in tumor volume relative to pre-treatment size)
[3]; 2 (2.0) mg/kg × 1 (iv)
  Effect alone: ++ (10% to 50% shrinkage in tumor volume relative to pre-treatment size)
[3]; single treatment
  hemorrhagic necrosis: modest amount of hemorrhagic necrosis
